In patent publication EP4714441A1, “COMPOSITION FOR PREVENTING OR ALLEVIATING HEPATIC DYSFUNCTION” (KIRIN HOLDINGS KABUSHIKI KAISHA, priority 2023, dated 2025):

Legend:
Assay type in all cases: cell-based, human
[1] = Cell viability by MTT assay in HepG2 cells without hydrogen peroxide (effect on cell proliferation itself); details: human, hepg2 cells, PBS instead of hydrogen peroxide, control group = 100; for viability at 25 µM: Sample-added group (0.025 mM); for viability at 50 µM: Sample-added group (0.05 mM)
Experimental: (§1) A human liver cancer-derived cell line (HepG2: HB-8065™, Lot No. 70029112) was obtained from the American Type Culture Collection, and Dulbecco's Modified Eagle Medium (Thermo Fisher Scientific K.K.) containing 10% FBS was used as the basal medium. The cells were cultured in a 37°C, 5% CO2 incubator, and cells passaged for 17 to 22 generations were used for the experiments.
(§2) A cell suspension adjusted to an initial cell concentration of 2 x 10^4 cells/mL was seeded at 0.15 mL into a 96-well plate (Thermo Fisher Scientific K.K.).
(§3) After 20 hours of culture from seeding, alpha-lipoic acid trisulfide (LASSS) or alpha-lipoic acid trisulfide choline ester (LASSS-CE) was added to the medium in groups with a final concentration of 0.025 mM or 0.05 mM. Separately, a group to which only the solvent for LASSS or LASSS-CE (phosphate-buffered saline (PBS) containing 4% DMSO (FUJIFILM Wako Pure Chemical Corporation)) was added was designated as the solvent-added group. After 4 hours of culture following the sample addition, the medium of the above sample-added groups and the solvent-added group was replaced with a medium (not containing LASSS or LASSS-CE) to which hydrogen peroxide solution (FUJIFILM Wako Pure Chemical Corporation) had been added to a final concentration of 0.1 mM, thereby inducing hepatocyte damage. A group in which the same amount of PBS was added instead of hydrogen peroxide solution to the solvent-added group was designated as the control group. After culturing for 2 hours following the addition of hydrogen peroxide solution or PBS, cell viability was measured by the MTT assay to evaluate the extent of hepatocyte injury. In the table, SD represents standard deviation.
(§4) Furthermore, to evaluate the effect of LASSS and LASSS-CE on cell proliferation itself, a similar experiment was conducted by replacing the addition of hydrogen peroxide solution with the addition of the same amount of PBS, and the cell viability was measured by the MTT assay method.

HepG2 cells [2] = assay: as above; details: without hydrogen peroxide solution; result in words
Experimental: as §1, §2, §3, §4

HepG2 cells [3] = assay: Cell viability by MTT assay in HepG2 cells with hepatocyte damage induced by hydrogen peroxide; details: HepG2 cells damaged by hydrogen peroxide; result in words
Experimental: as §1, §2
After 20 hours of culture from seeding, alpha-lipoic acid trisulfide (LASSS) or alpha-lipoic acid trisulfide choline ester (LASSS-CE) was added to the medium in groups with a final concentration of 0.025 mM or 0.05 mM. Separately, a group to which only the solvent for LASSS or LASSS-CE (phosphate-buffered saline (PBS) containing 4% DMSO (FUJIFILM Wako Pure Chemical Corporation)) was added was designated as the solvent-added group. […] After culturing for 2 hours following the addition of hydrogen peroxide solution or PBS, cell viability was measured by the MTT assay to evaluate the extent of hepatocyte injury. […]

| SMILES | viability at 25 µM [1] [%] | viability at 50 µM [1] [%] | effect on the proliferation of HepG2 cells (HepG2 cells [2]) | cell viability compared to the hydrogen peroxide-added group (HepG2 cells [3]) |
| --- | --- | --- | --- | --- |
| O=C(O)CCCCC1CCSSS1 (stereo not drawn) [LASSS, alpha-lipoic acid trisulfide] | 102 | 102 | did not affect the proliferation of HepG2 cells | an improvement in cell viability was confirmed |
| C[N+](C)(C)CCOC(=O)CCCCC1CCSSS1 (stereo not drawn) [LASSS-CE, alpha-lipoic acid trisulfide choline ester] | 109 | 106 | did not affect the proliferation of HepG2 cells | an improvement in cell viability was confirmed |
